Experimental data published in publication PMC9063426, “MAP kinases differentially bind and phosphorylate NOS3 via two unique NOS3 sites” (FEBS Open Bio, 2022).
“Also recorded” adds a separate entry of the source. Where a SMILES comes first, the peptide text is derived from it. Where no end group is shown, it is not given here.

Assays:
p38α = target: T1, p38α (Homo sapiens, UniProt Q16539); experiment: BLI binding of biotinylated NOS3 peptides to p38α; settings: for koff / kon: BLI, inactive p38α, 25 °C, PBS buffer, global one-state fit; for binding of phosphopeptide: BLI sensorgram, kinase analyte p38α
T1 construct: His; made in house; host or cells: E. coli BL21(DE3) pLysS
Description: (§1) Biolayer interferometry (BLI) experiments were performed on a FortéBio (Menlo Park, CA) Octet QK biosensor using streptavidin (SA) sensors. Assays were performed in opaque 96‐well microplates at 25 °C. All volumes were 200 μL. Active GST‐JNK1α1 (SignalChem) was biotinylated by amine crosslinking to NHS‐LC‐LC‐biotin (succinimidyl‐6‐[biotinamido]‐6‐hexanamidohexanoate) (Thermo Fisher, Waltham, MA, USA). Reactions were performed at a 5 : 1 molar ratio of biotin to protein for 30 min at room temperature followed by separation of protein from free biotin by passage over a desalting column. Biotinylated JNK1α1 was loaded onto sensors for 300 s, which was sufficient to saturate them. Baseline was established by dipping sensors into binding buffer (50 mM Tris, pH 7.4, 10 mM NaCl, 10% glycerol, 0.01% Tween‐20) prior to moving sensors to wells containing varying concentrations of serially diluted NOS3 in the same buffer. Association was measured for 300 s, after which sensors were moved to wells containing buffer only and dissociation was monitored for another 300 s. Raw data were normalized for baseline drift by subtracting signal from a ligand‐saturated sensor exposed to buffer only throughout the experiment and then iteratively fit to a one‐state global association‐then‐dissociation binding model using GRAPHPAD Prism. Total binding was used for analysis as nonspecific binding measured by exposing sensors without ligand to analyte was negligible at all NOS3 concentrations used; that is, total binding was effectively specific binding due to very low nonspecific binding.
(§2) For peptide binding experiments, N‐terminally biotinylated peptides (Biomatik) (Table 1) in PBS with 10% glycerol, 0.005% tween, and 1 mM DTT were loaded onto SA sensors as above. After establishing baseline, sensors were exposed to serial dilutions of analyte MAP kinases ranging from 31 to 1000 nM. Peptide experiments were performed using parameters identical to the protein ligand experiments excepting the buffer was PBS with 10% glycerol, 0.005% tween, and 1 mM DTT throughout.
(§3) We tested both hypothesized interaction sites and the impact of nearby phosphorylation sites using: (a) a nonphosphorylated peptide corresponding to the putative NtMAP site (Fig. 1); (b) the identical peptide with S114 phosphorylated; (c) a nonphosphorylated peptide corresponding to the AI loop site; and (d) an identical peptide phosphorylated at the position corresponding to S633. The resultant sensorgrams are shown in Fig. 4 fit to global one‐state binding models to determine binding parameters. While there are complexities present in the data (see Discussion), a one‐state models fit very well to all peptide‐kinase curves. All three kinases bound both unphosphorylated peptides with submicromolar affinity that in most cases approximated the affinity observed for full‐length NOS3 reported above and in our prior report.

ERK2 = target: T2, ERK2 (Rattus norvegicus, UniProt P63086); experiment: BLI binding of biotinylated NOS3 peptides to ERK2; settings: for Kd / koff / kon: BLI, global one-state fit; for Kd: inactive (unphosphorylated) ERK2 31-1000 nM, biotinylated peptide ligand, 25 °C, PBS, 10% glycerol, 0.005% tween, 1 mM DTT; for koff / kon: inactive ERK2, 25 °C, PBS buffer; for binding of phosphopeptide: BLI sensorgram, kinase analyte ERK2
T2 construct: His; host or cells: E. coli BL21(DE3) pLysS
Description: as §1, §2, §3

JNK1α1 = target: T3, JNK1α1 (Homo sapiens, UniProt P45983); experiment: BLI binding of biotinylated NOS3 peptides to JNK1α1; settings: for Kd / koff / kon: BLI, global one-state fit; for Kd: inactive (unphosphorylated) JNK1α1 31-1000 nM, biotinylated peptide ligand, 25 °C, PBS, 10% glycerol, 0.005% tween, 1 mM DTT; for koff / kon: inactive JNK1α1, 25 °C, PBS buffer; for binding of phosphopeptide: BLI sensorgram, kinase analyte JNK1α1
T3 construct: GST; host or cells: E. coli BL21(DE3) pLysS
Description: as §1, §2, §3

NOS3 [1] = experiment: TCSPC fluorescence lifetime, conformation of NOS3; settings: FMN excited at 473 nm, detected at 525 nm
Description: Time‐resolved intensity decays were recorded using time‐correlated single‐photon counting fluorescence lifetime spectrometry (TCSPC FLT) to determine whether phosphorylation by JNK1α1 changes the conformation of NOS3.

NOS3 [2] = experiment: NOS3 phosphorylation status in HMEC-1 cells; type: cell-based, human; settings: data not shown
Description: Human microvascular endothelial cells (HMEC‐1) (CRL‐3243, ATCC) were cultured in MCDB131 medium. HMEC‐1 cells were maintained as described by the ATCC in MCDB131 supplemented with 10% FBS, 1 µg·mL^−1 Hydrocortisone, 10 mM Glutamine, and 10 ng·mL^−1 Epidermal Growth Factor under an atmosphere of 5% CO2 at 37 °C.

NOS3 [3] = experiment: Oxyhemoglobin assay of NO production by kinase-treated NOS3; type: biochemical, human; settings: oxyHb assay, 2.5 µM NOS3 with ERK2 14 nM (N = 10), p38α 14 nM (N = 4), JNK1α1-GST 63 nM (N = 3) or PKA 14 nM (N = 4), 30 min; versus untreated NOS3
Description: (§4) Active (HIS‐NOS3) was incubated alone or with individual kinases (ERK2, p38α, JNK1α1, and PKA) in 100 µL reaction buffer (20 mM HEPES, 0.5 mM DTT, 5 mM MgCl2, 0.5 mM ATP, and 10% glycerol at a pH of 7.4). The reactions were performed at 22‐25 °C for up to 1 h, and for the examination of nitric oxide activity, samples were incubated on ice for the immediate detection of NO via the oxyhemoglobin to methemoglobin assay (see below). For immunoblotting analysis to examine phosphorylation, kinase samples were quenched with 2× sample buffer spiked with 25 mM DTT and heated to 95 °C for 5 min. Boiled samples (at equal volumes) were electrophoresed and transferred to PDVF for immunoblot staining.
The oxyhemoglobin assay (oxyHb assay) is a spectroscopic method that measures the oxidative reaction of oxyhemoglobin at 421 nm (oxyHb) and methemoglobin (metHb) at 401 nm. Kinase assay reactions quenched on ice were used to measure NO synthesis and consumption. All oxyHb reactions were performed at 25 °C in a BioTek 96‐well UV‐visible spectrophotometer. Each reaction (100 µL total volume) was mixed with 40 µL of reaction buffer (1 μM FAD, 1 μM FMN, 10% glycerol, 12 nM BH4, 100 μM L‐arginine, 10 mM Tris/HCl, pH 7.5 at 25°, 250 μM CaCl2, 0.20 mg·mL^−1 BSA, 0.31 mg Hemoglobin, 7–10 U Superoxide Dismutase, 7–10 U Catalase, and 17 μg Calmodulin) and up to 40 µL (6–10 µg) of phosphorylated NOS3. Absorbance at 401 nm and 421 nm were read for 1 m at 15‐s intervals. To initiate the reaction, 20 µL of 200 mM NADPH reconstituted in Tris/HCl (1.4 M pH 7.5 at room temperature) was added. Measurements were recorded for 10 min at 15‐s intervals.
To calculate NOS3 activity, the change in absorbance/unit time was divided by the extinction coefficient (ε401‐421 = 77 200 M ^−1cm^−1 (ε401 = 38 600 M ^−1cm^−1)). This yielded NOS3 activity in units of molar change/unit time. Activity of kinase exposed NOS3 was compared to the NOS3 control activity (comparably treated NOS3 but not phosphorylated), and the data are presented as a percent of the control NOS3.

NOS3 [4] = settings: earlier work, ERK2-treated NOS3; ref [6]; cited from earlier work
NOS1 = settings: previous studies; ref [4]; cited from earlier work
Source text: While there is substantial nonspecific binding inherent in the NOS1 sample, it is quite clear that there is no observable specific binding. […] The NOS1 isoform lacks the pentabasic sequence in the autoinhibitory loop that we hypothe ...

NOS3 [5] = experiment: In vitro kinase assay with NOS3, phospho-specific immunoblotting; type: biochemical, human; settings: active kinases with NOS3, 5 and 60 min; for phosphorylation of NOS3 at S114: immunoblot with anti-pS114; for phosphorylation of NOS3 at S600: immunoblot with anti-pS600
Description: as §4
All samples were loaded at equal volumes on 3–8% gradient tris‐acetate gels. All gels were transferred to PVDF membranes and transferred for either 2 h at 40V or for 20V overnight. Membranes were blocked with one block (Li‐Cor Biosciences) for 30 m and incubated with respective antibodies (at manufacturers recommend concentrations for immunoblotting, 1 : 500 for the anti‐pS600‐NOS3) overnight at 4 °C. Blots were brought to RT for 30 m and washed 3× with 1X TBST for 10 m, probed with a fluorometric secondary antibody (Li‐Cor IRDye®) for 1 h, and washed before visualizing with a Li‐Cor Odyssey.

NOS3 [6] = settings: previous report, different (SignalChem GST) ERK2, bovine NOS3; ref [6]; cited from earlier work
Description: Portions of the NOS3 phosphorylation assays were analyzed for nitric oxide production, using PKA as a positive control. […] It is important to note that we cannot interpret the degree of NOS3 phosphorylation, just that NOS3 was phosphorylate ...

NOS3 [7] = settings: full-length NOS3; previously reported; ref [4]; cited from earlier work
Source text: While there is substantial nonspecific binding inherent in the NOS1 sample, it is quite clear that there is no observable specific binding. […] This was not surprising since others have qualitatively shown an interaction between NOS3 and JNK [10] and the MAP kinases have similarities in the requirements of binding to activators and substrates. Lack of binding to NOS1 by all three MAP kinases examined thus far strengthens the interpretation that NOS3 is a node for MAP kinase signaling, while NOS1 and NOS2 are not.

T1 sequence (Q16539 whole entry): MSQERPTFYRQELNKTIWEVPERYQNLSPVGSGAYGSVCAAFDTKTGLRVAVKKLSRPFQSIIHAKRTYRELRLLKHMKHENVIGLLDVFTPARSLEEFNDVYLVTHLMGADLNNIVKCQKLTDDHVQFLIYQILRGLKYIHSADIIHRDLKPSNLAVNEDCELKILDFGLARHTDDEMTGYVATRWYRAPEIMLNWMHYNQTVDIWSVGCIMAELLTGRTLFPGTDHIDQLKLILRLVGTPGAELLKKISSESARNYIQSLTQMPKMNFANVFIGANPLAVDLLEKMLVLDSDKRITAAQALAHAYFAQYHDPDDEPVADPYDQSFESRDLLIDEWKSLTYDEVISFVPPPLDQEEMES
T2 sequence (P63086 whole entry): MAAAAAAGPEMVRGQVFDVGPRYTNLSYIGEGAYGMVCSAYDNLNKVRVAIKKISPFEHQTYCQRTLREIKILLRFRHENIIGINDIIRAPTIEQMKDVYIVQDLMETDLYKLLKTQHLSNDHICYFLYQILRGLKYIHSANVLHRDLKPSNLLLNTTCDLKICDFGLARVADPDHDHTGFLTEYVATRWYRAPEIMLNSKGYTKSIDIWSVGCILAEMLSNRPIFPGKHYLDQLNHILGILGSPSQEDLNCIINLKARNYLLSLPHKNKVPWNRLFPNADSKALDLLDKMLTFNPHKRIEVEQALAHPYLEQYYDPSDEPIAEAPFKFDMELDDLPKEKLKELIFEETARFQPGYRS
T3 sequence (P45983 1-384 isoform P45983-2, species assumed): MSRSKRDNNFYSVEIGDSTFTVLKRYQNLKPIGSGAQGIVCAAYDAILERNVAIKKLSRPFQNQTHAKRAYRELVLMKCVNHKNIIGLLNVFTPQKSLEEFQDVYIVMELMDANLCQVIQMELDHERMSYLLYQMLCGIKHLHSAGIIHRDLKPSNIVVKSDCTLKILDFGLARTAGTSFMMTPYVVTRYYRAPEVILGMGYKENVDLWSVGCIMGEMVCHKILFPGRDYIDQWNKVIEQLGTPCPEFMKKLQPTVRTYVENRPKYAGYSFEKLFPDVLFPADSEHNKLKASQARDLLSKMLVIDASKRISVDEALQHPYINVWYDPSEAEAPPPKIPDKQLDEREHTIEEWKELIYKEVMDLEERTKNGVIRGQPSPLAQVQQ

Compound CC(C)C[C@H](NC(=O)[C@H](CS)NC(=O)[C@H](CCCNC(=N)N)NC(=O)[C@H](CCCNC(=N)N)NC(=O)[C@@H]1CCCN1C(=O)[C@@H](NC(=O)[C@@H](N)CS)[C@@H](C)O)C(=O)NCC(=O)N[C@@H](CO)C(=O)N[C@@H](CC(C)C)C(=O)N[C@H](C(=O)N[C@@H](Cc1ccccc1)C(=O)N1CCC[C@H]1C(=O)N[C@@H](CCCNC(=N)N)C(=O)N[C@@H](CCCCN)C(=O)N[C@@H](CC(C)C)C(=O)N[C@@H](CCC(N)=O)C(=O)NCC(=O)N[C@@H](CCCNC(=N)N)C(=O)N1CCC[C@H]1C(=O)N[C@@H](CO)C(=O)N1CCC[C@H]1C(=O)NCC(=O)N1CCC[C@H]1C(=O)N1CCC[C@H]1C(=O)N[C@@H](C)C(=O)O)C(C)C [NtMAP] (H-CTPRRCLGSLVFPRKLQGRPSPGPPA-OH) has a koff (p38α) of 0.00053 s⁻¹, a kon (p38α) of 17300 M⁻¹ s⁻¹ and a Kd (ERK2) of 940 nM. The koff (ERK2) was 0.00623 s⁻¹, the kon (ERK2) was 6600 M⁻¹ s⁻¹ and the Kd (JNK1α1) was 38 nM. The koff (JNK1α1) was 0.00054 s⁻¹ and the kon (JNK1α1) was 14100 M⁻¹ s⁻¹.
For “CTPRRCLGSLVFPRKLQGRPS*PGPPA [NtMAP with phosphorylated S114, NtMAP peptide with S114 phosphorylated]”, the binding of phosphopeptide (p38α) was “negligible binding”, the binding of phosphopeptide (ERK2) was “negligible binding” and the binding of phosphopeptide (JNK1α1) was “negligible binding”.
In the case of Calmodulin [reference compound], the “conformation of NOS3 (fluorescence decay)” value (NOS3 [1]; NOS3 holoenzyme) is reported as “produced a change in conformation indicative of active NOS3” and the “conformation of JNK1α1-treated NOS3 (fluorescence decay)” value (NOS3 [1]; calmodulin on JNK1α1-treated NOS3) is reported as “produced the same degree of shift (activation) in JNK1α1‐treated NOS3”.
For Epidermal Growth Factor [EGF], the NOS3 phosphorylation status (NOS3 [2]) was “altered NOS3 phosphorylation status”.
With “YKIRFNSISCSDPLVSSWRRKRKES*SNTDSA [AI with phosphorylated S633, AI loop peptide phosphorylated at the position corresponding to S633]” the binding of phosphopeptide (p38α) was “negligible binding”, the binding of phosphopeptide (ERK2) was “negligible binding” and the binding of phosphopeptide (JNK1α1) was “negligible binding”.
In the case of YKIRFNSISCSDPLVSSWRRKRKESSNTDSA [AI], the koff (p38α) is reported as 0.00096 s⁻¹, the kon (p38α) is reported as 15900 M⁻¹ s⁻¹ and the Kd (ERK2) is reported as 170 nM. For the same compound, the koff (ERK2) was 0.002 s⁻¹, the kon (ERK2) was 12100 M⁻¹ s⁻¹ and the Kd (JNK1α1) was 3 nM. The koff (JNK1α1) was 0.00025 s⁻¹ and the kon (JNK1α1) was 84600 M⁻¹ s⁻¹.
In the case of “cAMP‐dependent protein kinase [PKA, reference compound]”, the “NO production / NOS3 activity” value (NOS3 [3]) is reported as “increased production of NO; also recorded: increased activity”.
In the case of “insulin: insulin, treatment of HMEC-1 cells”, the NOS3 phosphorylation status (NOS3 [2]) is reported as “altered NOS3 phosphorylation status”.
For “mitogen‐activated protein kinase 1 [ERK2]”, the “conformation of NOS3” value (NOS3 [4]) is given as “presented an altered conformation from untreated NOS3”, the “binding to NOS1” value (NOS1) is given as “no binding to NOS1” and the “NO production / NOS3 activity” value (NOS3 [3]) is given as “do not significantly change NO production; also recorded: did not alter in vitro NOS3 activity”. For the same compound, the “phosphorylation of NOS3 at S114” value (NOS3 [5]) was “did not meaningfully phosphorylate S114 when compared to JNK1α1 and p38α”, the “phosphorylation of NOS3 at S600” value (NOS3 [5]) was “at S600; also recorded: phosphorylates S600; also recorded: robust when compared to JNK1α1” and the “inhibition of NOS3 activity” value (NOS3 [6]) was “approximately 50%”. The Kd (NOS3 [7]) was 160 nM.
For “mitogen‐activated protein kinase 14 [p38α]”, the “binding to NOS1” value (NOS1) is given as “no binding to NOS1”, the “NO production / NOS3 activity” value (NOS3 [3]) is given as “do not significantly change NO production; also recorded: did not alter in vitro NOS3 activity” and the “phosphorylation of NOS3 at S114” value (NOS3 [5]) is given as “phosphorylates both residues; also recorded: easily detected when compared to ERK2”. For the same compound, the “phosphorylation of NOS3 at S600” value (NOS3 [5]) was “phosphorylates both residues; also recorded: robust when compared to JNK1α1” and the Kd (NOS3 [7]) was 80 nM.
